Test: Octanol-water partition coefficient, log P by reverse phase HPLC method
Type: physicochemical

logP	SMILES
2.21	CC(=O)N(Cc1ccccc1O[11CH3])c1cnccc1Oc1ccccc1
2.53	Cc1ccc2c(c1)c1c(n2CCc2ccc(C)nc2)CCN([11CH3])C1
